{
  "source": "PubChem BioAssay AID2790",
  "about": "(The Scripps Research Institute Molecular Screening Center, 2010)",
  "note": "Active and inactive are the calls of the source.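 Rule for the calls: active = IC50 at or below 10 micromolar; inactive = IC50 above 10 micromolar.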",
  "data": [
    {"target": "Bcl-2-like protein 1 (Homo sapiens) (UniProt Q07817)", "sequence (Q07817 whole entry, looked up)": "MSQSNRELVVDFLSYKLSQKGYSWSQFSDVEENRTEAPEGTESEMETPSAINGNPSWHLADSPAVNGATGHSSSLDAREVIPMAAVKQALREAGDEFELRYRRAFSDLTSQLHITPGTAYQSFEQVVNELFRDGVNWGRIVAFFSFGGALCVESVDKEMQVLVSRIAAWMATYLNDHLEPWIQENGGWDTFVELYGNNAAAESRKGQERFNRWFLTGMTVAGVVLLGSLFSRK", "assay": "Bcl-xL inhibition potency, Bim BH3 displacement, dose response, counter-screen for MCL1-BIM inhibitor project, biochemical, fluorescence polarization, powder samples (AID 2790)", "conditions": "GST-BCL-XL / FITC-Bim BH3 fluorescence polarization", "values": [
      {"molecule": "C=CCN=c1scc(-c2ccco2)n1/N=C/c1ccc(O)c(O)c1O", "IC50": "> 109 µM (inactive)"},
      {"molecule": "Cc1cccc(NC(=O)CNC(=O)c2cccc(-n3cccc3)c2)c1C", "IC50": "> 109 µM (inactive)"},
      {"molecule": "O=C(NN=Cc1ccc(-c2ccc(S(=O)(=O)Nc3ncccn3)cc2)o1)c1cc2ccccc2cc1O", "IC50": "> 109 µM (inactive)"},
      {"molecule": "CCOc1ccc(NC(=O)c2cccc(-n3cccc3)c2)cc1S(=O)(=O)N1CCOCC1", "IC50": "> 109 µM (inactive)"},
      {"molecule": "COc1ccc(-n2cccc2/C=C2\\C(=N)N3N=C(c4ccco4)SC3=NC2=O)cc1", "IC50": "> 109 µM (inactive)"},
      {"molecule": "Cc1ccc(C(=O)O)cc1-c1ccc(/C=C2\\SC(=O)N(CC(=O)Nc3ccc4c(c3)OCO4)C2=O)o1", "IC50": "> 109 µM (inactive)"},
      {"molecule": "COc1ccc(NC(=O)CN(C)C(=O)c2cc3c(s2)CCC3)cc1", "IC50": "> 109 µM (inactive)"},
      {"molecule": "COC(=O)c1ccccc1NCc1cc(=O)oc2cc(O)c(O)cc12", "IC50": "> 109 µM (inactive)"},
      {"molecule": "Nc1ccc(C(=O)NN=Cc2cc(N=Nc3cccc4ccccc34)ccc2O)cc1", "IC50": "> 109 µM (inactive)"},
      {"molecule": "O=C(NN=Cc1cccc(F)c1)c1cc(-c2ccco2)nc2ccccc12", "IC50": "> 109 µM (inactive)"},
      {"molecule": "O=C1COc2ccc(C(=O)COC(=O)/C=C/c3ccc(Br)o3)cc2N1", "IC50": "> 109 µM (inactive)"},
      {"molecule": "C=CCn1c(SCC(=O)c2ccc(O)c(O)c2)nnc1-c1cccnc1", "IC50": "inactive"},
      {"molecule": "CCc1sc(C(C2C(=O)CC(C)(C)CC2=O)C2C(=O)CC(C)(C)CC2=O)cc1[N+](=O)[O-]", "IC50": "> 109 µM (inactive)"},
      {"molecule": "COc1ccc(Cc2nnc(NC(=O)Cc3cccs3)s2)cc1OC", "IC50": "> 109 µM (inactive)"},
      {"molecule": "c1coc(-c2nc(-c3ccco3)c(-c3ccco3)nc2-c2ccco2)c1", "IC50": "> 109 µM (inactive)"}
    ]}
  ]
}
